Test results reported in US7378438B2, “Beta-agonist compounds comprising nitric oxide donor groups and reactive oxygen species scavenger groups and their use in the treatment of respiratory disorders” (Yissum Research Development Company of the Hebrew …, priority 2002, dated 2008).

Assays:
[1] = tested on: NO-guanylyl cyclase pathway; assay: Cyclic nucleotide (cGMP) assay in tracheal rings; type: cell-based, guinea pigs; details: FIG. 2
Protocol: (§1) Male Hartley guinea pigs (500-600 g) were anesthetized by intraperitoneal injection of ketamine and xylazine (50 and 10 mg/kg, respectively). The heart and lungs were excised en bloc and tracheas were removed and placed in Krebs-Henseleit buffer composed of (mM): NaCl 118, KCl 5.4, NaH2PO4 1.01, NaHCO3 25, MgSO4 0.69, […], glucose 11.1, pH 7.4. Tracheas were then dissected free from surrounding fat and connective tissue and cut into 1-2-mm thick rings. The tracheal rings were then placed in buffer and continuously gassed with 95% O2 and 5% CO2.
Tracheal rings in Krebs-Heneseleit solution were exposed to a 5-100 μM of the test compound for 30-90 seconds. Reaction was terminated by the addition of ice-cold 10% trichloroacetic acid and rapidly frozen in ethanol-saturated dry ice. In the methylene blue experiment, rings were pre-exposed methylene blue, a guanylyl cyclase inhibitor, for 30 min. Tissues were then individually pulverized with a glass homogenizer and centrifuged at 8000×g for 5 min. The clear supernatant was extracted with water-saturated ether and assayed for cGMP using commercially available radioimmunoassay kits as described by the manufacturer (Amersham Biosciences, Piscataway, N.J.).

[2] = tested on: tracheal rings; assay: Relaxation studies on pre-contracted tracheal rings; type: cell-based, guinea pigs; details: FIG. 1; tracheal rings contracted with methacholine, histamine or leukotriene D4; compared with salbutamol and compound 2a
Protocol: The assays as described here are also described in, for example, U.S. Pat. No. 4,992,474 and Jansen et al.(1992) J. Pharmacol. Exptl. TherapeuticsI 261(1):154-160.
as §1
Tracheal rings were suspended on stainless steel hooks in 10 ml of oxygenated (95% O2, 5% CO2) Krebs-Henseleit buffer at 37° C. and connected to transducer (Experimetria Model) for recording changes in isometric force. The tracheal rings were equilibrated for 60 min under a load of 1 g and then primed twice by exposure to 100 μM methacholine. Tissues were contacted with methacholine, histamine, or leukotriene D4 at concentrations determined to approximately generate 50% of maximal tone, after which cumulative relaxation-response curves were constructed. […]

Substance: 5-(2-tert-Butylamino-1-S-nitroso-ethyl)-1,1,3,3-tetramethyl-isoindolin-2-yloxyl [compound 2]
- cGMP response of tracheal rings ([1]; 5-100 μM test compound for 30-90 seconds, radioimmunoassay, compared with control and salbutamol): elevates the production of cGMP
- cGMP response of tracheal rings in the presence of methylene blue (MB) ([1]; rings pre-exposed to methylene blue, a guanylyl cyclase inhibitor, for 30 min): reduces the efficacy of compound 2
- relaxation response (relax. %) versus log of concentration [2]: more effective relaxant compound than either salbutamol or the non-nitrosolated precursor of compound 2, compound 2a
